According to the NIST ThermoML archive (doi:10.1021/je4001894):
Numbers after ± are expanded uncertainties.

What was measured:
[1] = 101.33 kPa, Liquid, Vibrating tube method
[2] = activity coefficient (dimensionless); of the first substance listed, at infinite dilution; xn = mol fraction of the nth substance listed; conditions: 101 kPa, Liquid, Chromatography, x1 = 0

SMILES: CCCC[N+]1(C)CCCC1.O=S(=O)([N-]S(=O)(=O)C(F)(F)F)C(F)(F)F
- mass density ([1]; 293.15 K): 1397.4 ± 0.6 kg/m3
- mass density ([1]; 303.15 K): 1389.2 ± 0.6 kg/m3
- mass density ([1]; 313.15 K): 1381.1 ± 0.6 kg/m3
- mass density ([1]; 323.15 K): 1372.7 ± 0.6 kg/m3
- mass density ([1]; 333.15 K): 1364.1 ± 0.6 kg/m3

SMILES: CCC[N+]1(C)CCCC1.O=S(=O)([N-]S(=O)(=O)C(F)(F)F)C(F)(F)F
- mass density ([1]; 293.15 K): 1430.1 ± 0.6 kg/m3
- mass density ([1]; 303.15 K): 1421.8 ± 0.6 kg/m3
- mass density ([1]; 313.15 K): 1412.8 ± 0.6 kg/m3
- mass density ([1]; 323.15 K): 1403.8 ± 0.6 kg/m3
- mass density ([1]; 333.15 K): 1394.4 ± 0.6 kg/m3

SMILES: CC(C)CO [2-methyl-1-propanol] + CCC[N+]1(C)CCCC1.O=S(=O)([N-]S(=O)(=O)C(F)(F)F)C(F)(F)F
- activity coefficient ([2]; 323.15 K): 2.51 ± 0.17
- activity coefficient ([2]; 333.15 K): 2.29 ± 0.16
- activity coefficient ([2]; 343.15 K): 2.1 ± 0.14

SMILES: CC(C)O [propan-2-ol] + CCC[N+]1(C)CCCC1.O=S(=O)([N-]S(=O)(=O)C(F)(F)F)C(F)(F)F
- activity coefficient ([2]; 323.15 K): 1.92 ± 0.13
- activity coefficient ([2]; 333.15 K): 1.79 ± 0.12
- activity coefficient ([2]; 343.15 K): 1.62 ± 0.11
